Laboratory results taken from patent US20100041089A1, “IMPROVED METHOD FOR DETECTING CHEMICAL […]” (priority 2006, published 2010).

Tested on: yeast genes (expressed mRNA)
Assay: DNA chip measurement of expressed mRNA of yeast genes after culture with a toxic chemical substance
Type: cell-based, Saccharomyces cerevisiae S288C
Outline: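 Yeast S288C, YPD 25° C; toxicant at log phase, 2 h, sublethal growth-inhibiting conc.; no-chemical control. Hot SDS/acetate RNA extraction, oligo-dT mRNA, Cy3/Cy5-dUTP RT. Whole-genome chip, 65° C >12 h. Readout: treated/control intensity ratio, ≥2 significant.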

C[S+](C)[O-] [(15), Dimethyl sulfoxide]
The level of expressed mRNA in the presence of chemical substance/The level of expressed mRNA in the absence of chemical substance, yeast gene YDL067C (gene YDL067C (mitochondria-located protein gene), yeast cultured two hours with chemical substance, DNA chip fluorescence ratio to control): 0.7
The level of expressed mRNA in the presence of chemical substance/The level of expressed mRNA in the absence of chemical substance, yeast gene YDR079W (gene YDR079W (mitochondria-located protein gene), yeast cultured two hours with chemical substance, DNA chip fluorescence ratio to control): 0.6
The level of expressed mRNA in the presence of chemical substance/The level of expressed mRNA in the absence of chemical substance, yeast gene YGR062C (gene YGR062C (mitochondria-located protein gene), yeast cultured two hours with chemical substance, DNA chip fluorescence ratio to control): 0.5
The level of expressed mRNA in the presence of chemical substance/The level of expressed mRNA in the absence of chemical substance, yeast gene YJL096W (gene YJL096W (mitochondria-located protein gene), yeast cultured two hours with chemical substance, DNA chip fluorescence ratio to control): 1.0
The level of expressed mRNA in the presence of chemical substance/The level of expressed mRNA in the absence of chemical substance, yeast gene YJL180C (gene YJL180C (mitochondria-located protein gene), yeast cultured two hours with chemical substance, DNA chip fluorescence ratio to control): 0.6
level of expressed mRNA in the presence of chemical substance / level in the absence of chemical substance (yeast gene YAL018C, cultured two hours with the chemical substance): 6.9
level of expressed mRNA in the presence of chemical substance / level in the absence of chemical substance (yeast gene YAR047C, cultured two hours with the chemical substance): 0.5
level of expressed mRNA in the presence of chemical substance / level in the absence of chemical substance (yeast gene YAR064W, cultured two hours with the chemical substance): 1.9
level of expressed mRNA in the presence of chemical substance / level in the absence of chemical substance (yeast gene YBL044W, cultured two hours with the chemical substance): 0.7
level of expressed mRNA in the presence of chemical substance / level in the absence of chemical substance (yeast gene YBR012C, cultured two hours with the chemical substance): 1.1
The level of expressed mRNA in the presence of chemical substance/The level of expressed mRNA in the absence of chemical substance (yeast gene YBR047W, cultured two hours with substance): 0.8
level of expressed mRNA in the presence of chemical substance / level in the absence of chemical substance (yeast gene YBR066C, cultured two hours with the chemical substance): 0.4
The level of expressed mRNA in the presence of chemical substance/The level of expressed mRNA in the absence of chemical substance (yeast gene YBR100W, cultured two hours with the chemical substance): 1.3
level of expressed mRNA in the presence of chemical substance / level in the absence of chemical substance (yeast gene YBR124W, cultured two hours with the chemical substance): 1.0
level of expressed mRNA in the presence of chemical substance / level in the absence of chemical substance (yeast gene YBR162C, cultured two hours with the chemical substance): 1.9
The level of expressed mRNA in the presence of chemical substance/The level of expressed mRNA in the absence of chemical substance (yeast gene YBR273C, cultured two hours with substance): 0.8
level of expressed mRNA in the presence of chemical substance / level in the absence of chemical substance (yeast gene YBR287W, cultured two hours with the chemical substance): 1.3
The level of expressed mRNA in the presence of chemical substance/The level of expressed mRNA in the absence of chemical substance (yeast gene YCL009C): 6.5
The level of expressed mRNA in the presence of chemical substance/The level of expressed mRNA in the absence of chemical substance (yeast gene YCL040W, cultured for two hours with substance): 3.4
The level of expressed mRNA in the presence of chemical substance/The level of expressed mRNA in the absence of chemical substance (yeast gene YCL049C, cultured two hours with substance): 1.4
level of expressed mRNA in the presence of chemical substance / level in the absence of chemical substance (yeast gene YCL056C, cultured two hours with the chemical substance): 1.7
level of expressed mRNA in the presence of chemical substance / level in the absence of chemical substance (yeast gene YCR007C, cultured two hours with the chemical substance): 0.8
The level of expressed mRNA in the presence of chemical substance/The level of expressed mRNA in the absence of chemical substance (yeast gene YCR030C, cultured two hours with the chemical substance): 1.3
The level of expressed mRNA in the presence of chemical substance/The level of expressed mRNA in the absence of chemical substance (yeast gene YCR082W, cultured two hours with substance): 1.6
The level of expressed mRNA in the presence of chemical substance/The level of expressed mRNA in the absence of chemical substance (yeast gene YCR107W, cultured for two hours with substance): 4.8
level of expressed mRNA in the presence of chemical substance / level in the absence of chemical substance (yeast gene YDL046W, cultured two hours with the chemical substance): 2.3
The level of expressed mRNA in the presence of chemical substance/The level of expressed mRNA in the absence of chemical substance (yeast gene YDL110C, cultured two hours with substance): 1.3
The level of expressed mRNA in the presence of chemical substance/The level of expressed mRNA in the absence of chemical substance (yeast gene YDL222C, cultured two hours with substance): 7.1
The level of expressed mRNA in the presence of chemical substance/The level of expressed mRNA in the absence of chemical substance (yeast gene YDR031W, cultured two hours with substance): 0.8
The level of expressed mRNA in the presence of chemical substance/The level of expressed mRNA in the absence of chemical substance (yeast gene YDR032C, cultured two hours with substance): 1.3
level of expressed mRNA in the presence of chemical substance / level in the absence of chemical substance (yeast gene YDR090C, cultured two hours with the chemical substance): 1.1
level of expressed mRNA in the presence of chemical substance / level in the absence of chemical substance (yeast gene YDR128W, cultured two hours with the chemical substance): 1.4
level of expressed mRNA in the presence of chemical substance / level in the absence of chemical substance (yeast gene YDR133C, cultured two hours with the chemical substance): 0.6
level of expressed mRNA in the presence of chemical substance / level in the absence of chemical substance (yeast gene YDR250C, cultured two hours with the chemical substance): 0.7
level of expressed mRNA in the presence of chemical substance / level in the absence of chemical substance (yeast gene YDR278C, cultured two hours with the chemical substance): 0.7
level of expressed mRNA in the presence of chemical substance / level in the absence of chemical substance (yeast gene YDR281C, cultured two hours with the chemical substance): 0.3
level of expressed mRNA in the presence of chemical substance / level in the absence of chemical substance (yeast gene YDR366C, cultured two hours with the chemical substance): 1.4
The level of expressed mRNA in the presence of chemical substance/The level of expressed mRNA in the absence of chemical substance (yeast gene YDR434W, cultured two hours with substance): 1.3
The level of expressed mRNA in the presence of chemical substance/The level of expressed mRNA in the absence of chemical substance (yeast gene YDR476C, cultured two hours with substance): 2.2
The level of expressed mRNA in the presence of chemical substance/The level of expressed mRNA in the absence of chemical substance (yeast gene YDR497C (transport facilitation protein gene)): 10.1
The level of expressed mRNA in the presence of chemical substance/The level of expressed mRNA in the absence of chemical substance (yeast gene YDR511W, cultured two hours with substance): 0.8
The level of expressed mRNA in the presence of chemical substance/The level of expressed mRNA in the absence of chemical substance (yeast gene YDR520C, cultured two hours with substance): 1.3
The level of expressed mRNA in the presence of chemical substance/The level of expressed mRNA in the absence of chemical substance (yeast gene YER014W, mitochondria-located protein gene, cultured two hours with substance): 2.3
The level of expressed mRNA in the presence of chemical substance/The level of expressed mRNA in the absence of chemical substance (yeast gene YER038C, cultured two hours with substance): 0.8
The level of expressed mRNA in the presence of chemical substance/The level of expressed mRNA in the absence of chemical substance (yeast gene YER106W, cultured two hours with substance): 6.8
The level of expressed mRNA in the presence of chemical substance/The level of expressed mRNA in the absence of chemical substance (yeast gene YER175C, cultured two hours with substance): 1.3
level of expressed mRNA in the presence of chemical substance / level in the absence of chemical substance (yeast gene YFR026C, cultured two hours with the chemical substance): 2.3
The level of expressed mRNA in the presence of chemical substance/The level of expressed mRNA in the absence of chemical substance (yeast gene YGL037C, cultured two hours with substance): 0.8
level of expressed mRNA in the presence of chemical substance / level in the absence of chemical substance (yeast gene YGL088W, cultured two hours with the chemical substance): 0.4
The level of expressed mRNA in the presence of chemical substance/The level of expressed mRNA in the absence of chemical substance (yeast gene YGL204C, cultured two hours with substance): 0.8
The level of expressed mRNA in the presence of chemical substance/The level of expressed mRNA in the absence of chemical substance (yeast gene YGL259W, cultured two hours with substance): 1.3
The level of expressed mRNA in the presence of chemical substance/The level of expressed mRNA in the absence of chemical substance (yeast gene YGR010W, cultured two hours with substance): 1.3
level of expressed mRNA in the presence of chemical substance / level in the absence of chemical substance (yeast gene YGR038W, cultured two hours with the chemical substance): 1.1
level of expressed mRNA in the presence of chemical substance / level in the absence of chemical substance (yeast gene YGR139W, cultured two hours with the chemical substance): 2.3
The level of expressed mRNA in the presence of chemical substance/The level of expressed mRNA in the absence of chemical substance (yeast gene YGR141W, cultured two hours with the substance): 2.6
The level of expressed mRNA in the presence of chemical substance/The level of expressed mRNA in the absence of chemical substance (yeast gene YGR142W, cultured two hours with substance): 1.3
The level of expressed mRNA in the presence of chemical substance/The level of expressed mRNA in the absence of chemical substance (yeast gene YGR153W, cultured two hours with substance): 1.3
level of expressed mRNA in the presence of chemical substance / level in the absence of chemical substance (yeast gene YGR243W, cultured two hours with the chemical substance): 0.8
level of expressed mRNA in the presence of chemical substance / level in the absence of chemical substance (yeast gene YGR293C, cultured two hours with the chemical substance): 0.7
level of expressed mRNA in the presence of chemical substance / level in the absence of chemical substance (yeast gene YHL006C, cultured two hours with the chemical substance): 0.6
level of expressed mRNA in the presence of chemical substance / level in the absence of chemical substance (yeast gene YHR095W, cultured two hours with the chemical substance): 0.8
level of expressed mRNA in the presence of chemical substance / level in the absence of chemical substance (yeast gene YHR105W, cultured two hours with the chemical substance): 0.9
The level of expressed mRNA in the presence of chemical substance/The level of expressed mRNA in the absence of chemical substance (yeast gene YHR138C, cultured two hours with substance): 2.2
The level of expressed mRNA in the presence of chemical substance/The level of expressed mRNA in the absence of chemical substance (yeast gene YHR142W): 4.8
level of expressed mRNA in the presence of chemical substance / level in the absence of chemical substance (yeast gene YHR181W, cultured two hours with the chemical substance): 1.4
The level of expressed mRNA in the presence of chemical substance/The level of expressed mRNA in the absence of chemical substance (yeast gene YIL041W, cultured two hours with substance): 1.3
The level of expressed mRNA in the presence of chemical substance/The level of expressed mRNA in the absence of chemical substance (yeast gene YIL060W, cultured two hours with substance): 1.3
The level of expressed mRNA in the presence of chemical substance/The level of expressed mRNA in the absence of chemical substance (yeast gene YIL117C, cultured two hours with substance): 7.5
level of expressed mRNA in the presence of chemical substance / level in the absence of chemical substance (yeast gene YIL127C, cultured two hours with the chemical substance): 0.7
The level of expressed mRNA in the presence of chemical substance/The level of expressed mRNA in the absence of chemical substance (yeast gene YIL143C, DNA repair protein genes, cultured two hours with substance): 1.3
The level of expressed mRNA in the presence of chemical substance/The level of expressed mRNA in the absence of chemical substance (yeast gene YIR041W, cultured two hours with the chemical substance): 1.3
level of expressed mRNA in the presence of chemical substance / level in the absence of chemical substance (yeast gene YJL017W, cultured two hours with the chemical substance): 1.1
The level of expressed mRNA in the presence of chemical substance/The level of expressed mRNA in the absence of chemical substance (yeast gene YJL034W (transport facilitation protein gene)): 7.9
level of expressed mRNA in the presence of chemical substance / level in the absence of chemical substance (yeast gene YJL037W, cultured two hours with the chemical substance): 1.6
The level of expressed mRNA in the presence of chemical substance/The level of expressed mRNA in the absence of chemical substance (yeast gene YJL066C, cultured two hours with substance): 1.3
level of expressed mRNA in the presence of chemical substance / level in the absence of chemical substance (yeast gene YJL097W, cultured two hours with the chemical substance): 1.1
The level of expressed mRNA in the presence of chemical substance/The level of expressed mRNA in the absence of chemical substance (yeast gene YJL108C, cultured two hours with substance): 4.0
The level of expressed mRNA in the presence of chemical substance/The level of expressed mRNA in the absence of chemical substance (yeast gene YJL149W, cultured two hours with substance): 9.0
